7 compounds from patent publication US20160039879A1, “NOVEL CYCLOSPORIN DERIVATIVES AND USES THEREOF” (S&T Global Inc., priority 2013, published 2016) can be followed below.

Like-named read-outs stand apart in the source and are kept apart here. Starred links: 1 amine or outer side, 2 acyl side, 3 side chain; linkers in the order of their positions; H or OH if unused. Non-standard residues stand in square brackets, D forms with d. Residues, ends and D or L forms follow the SMILES beside them. X8 = CN([C@@H](CC(C)(C)OCc1ccccc1)C(=O)[*:2])[*:1]; MeBmt = C/C=C/C[C@@H](C)[C@@H](O)[C@H](NC)C(=O)O; X3 = CN([C@H](SCCCN1CCOCC1)C(=O)[*:2])[*:1]; NMeL = CN[C@@H](CC(C)C)C(=O)O; NMeV = CN[C@H](C(=O)O)C(C)C; Abu = CC[C@H](N)C(=O)O

For orientation: EC50 means the concentration at which the effect is half-maximal.

The nature of data set [1]: Stability testing: epimerization of cyclosporin derivatives in methanol, monitored by HPLC. It is filed as physicochemical. The following applies: Table 9, MeOH at 50° C.-58° C.
Data set [2] concerns HIV-1IIIB. As to the kind of experiment: Anti-HIV cytoprotection assay, acute infection model in CEM-SS cells (MTS endpoint). It is filed as cell-based. Particulars: HIV-1IIIB in CEM-SS cells, 6-day incubation, read-out: Antiviral activity EC50. Here is the method: Anti-HIV activity of cyclosporine derivatives were evaluated by cytoprotection assay in an acute infection model using CEM-SS cells and either HIV-1IIIB or HIV-1 RF. Antiviral activity was determined as a reduction in virus-caused cytopathic effects when compounds prevent virus replication. Cytoprotection and compound cytotoxicity were evaluated using the tetrazollium dye MTS (Promega) to calculate cell viability following virus infection after 6-day incubation (Zhou G., et al., 2011, J. Med. Chem. 27, 7220-31; which is incorporated herein by reference).

Data set [3] concerns HCV replicon in cell line ET (luc-ubi-neo/ET), Huh7 human hepatoma cell line. As to the kind of experiment: HCV subgenomic replicon assay (luciferase end point). The following applies: read-out: Antiviral activity EC50. It counts as cell-based.

Regarding `C/C=C/C[C@@H](C)[C@@H](O)[C@H]1C(=O)N[C@@H](CC)C(=O)N(C)[C@H](CSCCN(C)C)C(=O)N(C)[C@@H](CC(C)(C)O)C(=O)N[C@@H](C(C)C)C(=O)N(C)[C@@H](CC(C)C)C(=O)N[C@@H](C)C(=O)N[C@H](C)C(=O)N(C)[C@@H](CC(C)C)C(=O)N(C)[C@@H](CC(C)C)C(=O)N(C)[C@@H](C(C)C)C(=O)N1C` (single isomer, unassigned) [Example 31, isomer B], the “Epimerization % after 168 hours” value in data set [1] was 0%.
Same read-out and setting: the result for `C/C=C/C[C@@H](C)[C@@H](O)[C@H]1C(=O)N[C@@H](CC)C(=O)N(C)[C@H](CSCCN(CC)CC)C(=O)N(C)[C@@H](CC(C)(C)O)C(=O)N[C@@H](C(C)C)C(=O)N(C)[C@@H](CC(C)C)C(=O)N[C@@H](C)C(=O)N[C@H](C)C(=O)N(C)[C@@H](CC(C)C)C(=O)N(C)[C@@H](CC(C)C)C(=O)N(C)[C@@H](C(C)C)C(=O)N1C` (single isomer, unassigned) [Example 32, isomer B] reads 0%.
For the compound `C/C=C/C[C@@H](C)[C@@H](O)[C@H]1C(=O)N[C@@H](CC)C(=O)N(C)[C@H](CSCCN(C)C)C(=O)N(C)[C@@H](CC(C)(C)O)C(=O)N[C@@H](C(C)C)C(=O)N(C)[C@@H](CC(C)C)C(=O)N[C@@H](C)C(=O)N[C@H](C)C(=O)N(C)[C@@H](CC(C)C)C(=O)N(C)[C@@H](CC(C)C)C(=O)N(C)[C@@H](C(C)C)C(=O)N1C` (single isomer, unassigned; isomer b), the EC50 in data set [2] came out at 118 nM.
For the compound `CC=CCC(C)C(O)C1C(=O)NC(CC)C(=O)N(C)C(CSCCC(CO)CCC)C(=O)N(C)C(CC(C)(C)O)C(=O)NC(C(C)C)C(=O)N(C)C(CC(C)C)C(=O)NC(C)C(=O)NC(C)C(=O)N(C)C(CC(C)C)C(=O)N(C)C(CC(C)C)C(=O)N(C)C(C(C)C)C(=O)N1C` [Example 105, [(S)-((3-(R)-(Hydroxymethyl)hexyl)thio)methyl-Sar]-3-[(γ-hydroxy)-N-MeLeu]-4-cyclosporin], the “Epimerization % after 168 hours” value in data set [1] worked out at 0%.
For the compound `C/C=C/C[C@@H](C)[C@@H](O)[C@H]1C(=O)N[C@@H](CC)C(=O)N(C)[C@H](SCCCN2CCOCC2)C(=O)N(C)[C@@H](CC(C)(C)OCc2ccccc2)C(=O)N[C@@H](C(C)C)C(=O)N(C)[C@@H](CC(C)C)C(=O)N[C@@H](C)C(=O)N[C@H](C)C(=O)N(C)[C@@H](CC(C)C)C(=O)N(C)[C@@H](CC(C)C)C(=O)N(C)[C@@H](C(C)C)C(=O)N1C` [[(R)-(3-(N-Morpholino)propylthio-Sar]-3-[(γ-benzyloxy)-N-MeLeu]-4-cyclosporin] (cyclo(A[dA][NMeL][NMeL][NMeV][MeBmt][Abu][X3][X8]V[NMeL])), the half-maximal effective concentration (EC50) in data set [3] (Table 11, HCV replicon) came to 280 nM.
With “(R)-2-(N-iso-Butyl-N-iso-propylamino)ethylthio-Sar]-3-cyclosporin”, the EC50 in data set [3] (Table 10, HCV replicon) amounted to 480 nM.
Still for that read-out and setting: then “(S)-2-(N,N-Diethylamino)ethylthio-Sar]-3-[N-MeIle]-4-cyclosporin”, with 1870 nM.
